Data from US20020019527A1 (priority 2000, published 2002).
Structures can show the parent of a compound that is named as a salt.

molecular target: T1, Farnesyltransferase (FTase) (Bos taurus, UniProt P29702+P49355); assay: Farnesyltransferase inhibition (scintillation proximity assay, [3H]-FPP / biotin-K-ras peptide); assay type: biochemical, bovine; details: not given
T1 construct: precipitation from a beef brain homogenate; from tissue; host or cells: bovine brain
Method: Farnesyltransferase (FTase) or geranylgeranyltransferase I (GGTase I) fractions were isolated from bovine brains and purified by a series of methods which separate FTase from GGTase I and GGTase I from GGTase II. The methods involved a partial purification of all three enzymes by precipitation from a beef brain homogenate with 30% to 50% saturated […] followed by chromatography on DEAE Sepharose. […] The catalytic purity of each enzyme was assayed separately with substrate acceptor proteins specific for that enzyme. After quickly freezing in liquid nitrogen, the various prenyl transferases were stored at −80° C.
The quenched reactions stood for 1 hour before analysis in a Packard TopCount scintillation counter. Purified compounds were dissolved in 100% ethanol and diluted 10-fold into the assay.

T1 sequence (P49355 whole entry, one chain of several): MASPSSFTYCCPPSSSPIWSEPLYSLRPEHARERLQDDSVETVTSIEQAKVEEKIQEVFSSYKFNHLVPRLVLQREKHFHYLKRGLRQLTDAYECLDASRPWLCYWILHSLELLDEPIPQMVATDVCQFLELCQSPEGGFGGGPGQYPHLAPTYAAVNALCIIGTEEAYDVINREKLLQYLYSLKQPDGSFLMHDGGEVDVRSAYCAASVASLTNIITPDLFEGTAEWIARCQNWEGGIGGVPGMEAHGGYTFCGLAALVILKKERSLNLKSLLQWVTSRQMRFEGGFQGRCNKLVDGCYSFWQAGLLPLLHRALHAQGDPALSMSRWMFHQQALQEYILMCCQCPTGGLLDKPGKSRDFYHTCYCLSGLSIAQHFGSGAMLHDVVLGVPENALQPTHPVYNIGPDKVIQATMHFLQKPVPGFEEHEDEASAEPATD

Structure (SMILES) | % Inhibition at 10^−6M [%]
COc1cc(COC(c2ccc(C#N)c(-c3ccccc3C)c2)c2cncn2C)cc(OC)c1OC.Cl (stereo not shown) [Example 148] | 95
Cc1ccccc1-c1cc(C(OCc2cccc(OC(F)(F)F)c2)c2cncn2C)ccc1C#N.Cl (stereo not shown) [Example 143] | 97
Cc1ccccc1-c1cc(C(OCc2c(C)ccc3ccccc23)c2cncn2C)ccc1C#N.Cl (stereo not shown) [Example 178] | 90

same assay, conditions: compound at 10^−6 M; bovine FTase, 37° C., 30 minutes

inhibition at 1 µM [%] | Structure (SMILES) | % Inhibition at 10^−6M [%]
100 | Cn1cncc1CN(Cc1ccc(OC(F)(F)F)cc1)Cc1ccc(C#N)c(-c2cccc3ccccc23)c1 [Example 41, 4-((((1-methyl-1H-imidazol-5-yl)methyl)(4-(trifluoromethoxy)benzyl)amino)methyl)-2-(1-naphthyl)benzonitrile dihydrochloride] | 
 | Cc1ccccc1-c1cc(C(NCc2ccccc2)c2cncn2C)ccc1C#N (stereo not shown) [Example 23, 5-((benzylamino)(1-methy-1H-imidazol-5-yl)methyl)-2′-methyl(1,1′-biphenyl)-2-carbonitrile] | 100
95 | COC(=O)c1ccc(CN(Cc2ccc(C#N)c(-c3cccc4ccccc34)c2)Cc2cncn2C)nc1 [Example 208, methyl 6-(((4-cyano-3-(1-naphthyl)benzyl)((1-methyl-1H-imidazol-5-yl)methyl)-amino)-methyl)nicotinate] | 
86 | Cn1cncc1C(OCc1ccc(C#N)cc1)c1ccc(C#N)c(-c2cc3ccccc3s2)c1 (stereo not shown) [Example 203, 2-(1-benzothien-2-yl)-4-(((4-cyanobenzyl)oxy)(1-methyl-1H-imidazol-5-yl)methyl)benzonitrile hydrochloride] | 
100 | Cn1cncc1C(NCc1ccc(C#N)cc1)c1ccc(C#N)c(-c2cccc3ccccc23)c1 (stereo not shown) [Example 13, 4-(((4-cyanobenzyl)amino)(1-methyl-1H-imidazol-5-yl)methyl)-2-(1-naphthyl)benzonitrile dihydrochloride] | 
100 | Cn1cncc1C(OCc1ccc(C#N)c(I)c1)c1ccc(C#N)c(-c2cccc3ccccc23)c1 (stereo not shown) [Example 63, 4-(((4-cyano-3-iodobenzyl)oxy)(1-methyl-1H-imidazol-5-yl)methyl)-2-(1-naphthyl)benzonitrile hydrochloride] | 
96 | Cc1ccccc1-c1cc(C(OCc2ccc(F)c(F)c2)c2cncn2C)ccc1C#N (stereo not shown) [Example 147, 5-(((3,4-difluorobenzyl)oxy)(1-methyl-1H-imidazol-5-yl)methyl)-2′-methyl(1,1′-biphenyl)-2-carbonitrile hydrochloride] | 
100 | CN(C)C(=O)c1ccc(COC(c2ccc(C#N)c(-c3cccc4ccccc34)c2)c2cncn2C)cc1 (stereo not shown) [Example 70, 4-(((4-cyano-3-(1-naphthyl)phenyl)(1-methyl-1H-imidazol-5-yl)methoxy)methyl)-N,N-dimethylbenzamide hydrochloride] | 
 | COC(=O)c1ccc(CN(Cc2cncn2C)c2ccc(C#N)c(-c3cccc4ccccc34)c2)cc1 [Example 268, methyl 4-((4-cyano((1-methyl-1H-imidazol-5-yl)methyl)-3-(1-naphthyl)anilino)methyl)benzoate] | 100
100 | COC(=O)c1ccc(CNC(c2ccc(C#N)c(-c3cccc4ccccc34)c2)c2cncn2C)cc1 (stereo not shown) [Example 38, methyl 4-((((4-cyano-3-(1-naphthyl)phenyl)(1-methyl-1H-imidazol-5-yl)methyl)amino)methyl)benzoate] | 
 | Cn1cncc1CN(Cc1ccc(C(=O)O)cc1)c1ccc(C#N)c(-c2cccc3ccccc23)c1 [Example 269, 4-((4-cyano((1-methyl-1H-imidazol-5-yl)methyl)-3-(1-naphthyl)anilino)methyl)benzoic acid] | 100
92 | Cc1ccccc1-c1cc(C(OCc2ccc(C(N)=O)cc2)c2cncn2C)ccc1C#N (stereo not shown) [Example 188, 4-(((6-cyano-2′-methyl(1,1′-biphenyl)-3-yl)(1-methyl-1H-imidazol-5-yl)methoxy)methyl)benzamide] | 
93 | Cc1ccccc1-c1cc(C(OCc2ccc(C(F)(F)F)cc2F)c2cncn2C)ccc1C#N (stereo not shown) [Example 187, 5-(((2-fluoro-4-(trifluoromethyl)benzyl)oxy)(1-methyl-1H-imidazol-5-yl)methyl)-2′-methyl(1,1′-biphenyl)-2-carbonitrile hydrochloride] | 
100 | Cn1cncc1C(OCc1ccc(Cl)cc1)c1ccc(C#N)c(-c2cccc3ccccc23)c1 (stereo not shown) [Example 66, 4-(((4-chlorobenzyl)oxy)(1-methyl-1H-imidazol-5-yl)methyl)-2-(1-naphthyl)benzonitrile hydrochloride] | 
93 | CCOC(=O)N1CCC(N(Cc2ccc(C#N)c(-c3cccc4ccccc34)c2)Cc2cncn2C)CC1 [Example 209, ethyl 4-((4-cyano-3-(1-naphthyl)benzyl)((1-methyl-1H-imidazol-5-yl)methyl)-amino)-1-piperidinecarboxylate] | 
100 | Cn1cncc1C(OCc1ccc(C#N)cc1)c1ccc(F)c(-c2cccc3ccccc23)c1 (stereo not shown) [Example 112, 4-(((4-fluoro-3-(1-naphthyl)phenyl)(1-methyl-1H-imidazol-5-yl)methoxy)methyl)benzonitrile para-toluenesulfonic acid salt] | 
96 | Cc1cc(COC(c2ccc(C#N)c(-c3ccccc3C)c2)c2cncn2C)c(C#N)cc1C#N (stereo not shown) [Example 144, 4-(((6-cyano-2′-methyl(1,1′-biphenyl)-3-yl)(1-methyl-1H-imidazol-5-yl)methoxy)methyl)-6-methylisophthalonitrile hydrochloride] | 
97 | Cc1ccccc1-c1cc(C(OCc2ccc(Cl)cc2Cl)c2cncn2C)ccc1C#N (stereo not shown) [Example 157, 5-(((2,4-dichlorobenzyl)oxy)(1-methyl-1H-imidazol-5-yl)methyl)-2′-methyl(1,1′-biphenyl)-2-carbonitrile hydrochloride] | 
90 | Cn1cncc1CN(Cc1ccc(C#N)c(-c2cccc3ccccc23)c1)C(=O)c1ccc(C#N)cc1 [Example 196, 4-cyano-N-(4-cyano-3-(1-naphthyl)benzyl)-N-((1-methyl-1H-imidazol-5-yl)methyl)benzamide] | 
85 | Cc1ccccc1-c1cc(C(OCc2c(F)cccc2F)c2cncn2C)ccc1C#N (stereo not shown) [Example 186, 5-(((2,6-difluorobenzyl)oxy)(1-methyl-1H-imidazol-5-yl)methyl)-2′-methyl(1,1′-biphenyl)-2-carbonitrile hydrochloride] | 
90 | Cn1cncc1C(OCc1ccc(C(=O)O)cn1)c1ccc(C#N)c(-c2cccc3cccnc23)c1 (stereo not shown) [Example 245, 6-(((4-cyano-3-(8-quinolinyl)phenyl)(1-methyl-1H-imidazol-5-yl)methoxy)methyl)nicotinic acid trihydrochloride] | 
100 | CN(Cc1ccc(C#N)cc1)C(c1ccc(C#N)c(-c2cccc3ccccc23)c1)c1cncn1C (stereo not shown) [Example 29, 4-(((4-cyanobenzyl)(methyl)amino)(1-methyl-1H-imidazol-5-yl)methyl)-2-(1-naphthyl)benzonitrile] | 
100 | COC(=O)c1ccc(COC(c2ccc(C#N)c(-c3cccc4ccccc34)c2)c2cncn2C)cc1 (stereo not shown) [Example 64, methyl 4-(((4-cyano-3-(1-naphthyl)phenyl)(1-methyl-1H-imidazol-5-yl)methoxy)methyl)benzoate hydrochloride] | 
92 | Cc1ccccc1-c1cc(C(OCc2ccccc2F)c2cncn2C)ccc1C#N (stereo not shown) [Example 138, 5-(((2-fluorobenzyl)oxy)(1-methyl-1H-imidazol-5-yl)methyl)-2′-methyl(1,1′-biphenyl)-2-carbonitrile hydrochloride] | 
86 | Cc1ccccc1-c1cc(C(O)c2cncn2C)ccc1C#N (stereo not shown) [Example 86, 5-(hydroxy(1-methyl-1H-imidazol-5-yl)methyl)-2′-methyl(1,1′-biphenyl)-2-carbonitrile] | 
100 | Cn1cncc1C(OCc1ccc(C#N)cc1)c1ccc(C#N)c(-c2cccc3cnccc23)c1 (stereo not shown) [Example 44, 4-(((4-cyanobenzyl)oxy)(1-methyl-1H-imidazol-5-yl)methyl)-2-(5-isoquinolinyl)benzonitrile] | 
94 | Cn1cncc1CN(Cc1ccc(C#N)c(-c2cccc3ccccc23)c1)C(=O)c1ccc(Cl)c(F)c1 [Example 198, 4-chloro-N-(4-cyano-3-(1-naphthyl)benzyl)-3-fluoro-N-((1-methyl-1H-imidazol-5-yl)methyl)benzamide] | 
85 | Cc1ccccc1-c1cc(C(OCc2ccccc2Br)c2cncn2C)ccc1C#N (stereo not shown) [Example 185, 5-(((2-bromobenzyl)oxy)(1-methyl-1H-imidazol-5-yl)methyl)-2′-methyl(1,1′-biphenyl)-2-carbonitrile hydrochloride] | 
100 | Cn1cncc1C(O)(C#Cc1ccccc1)c1ccc(C#N)c(-c2cccc3ccccc23)c1 (stereo not shown) [Example 111, 4-(1-hydroxy-1-(1-methyl-1H-imidazol-5-yl)-3-phenyl-2-propynyl)-2-(1-naphthyl)benzonitrile] | 

Structure (SMILES) | inhibition at 1 µM [%] | % Inhibition at 10^−6M [%]
Cn1cncc1C(OCc1ccc(C(=O)O)cc1)c1ccc(C#N)c(-c2cccc3ccccc23)c1 (stereo not shown) [Example 69, lithium 4-(((4-cyano-3-(1-naphthyl)phenyl)(1-methyl-1H-imidazol-5-yl)methoxy)methyl)benzoate] | 100 | 
Cc1cc(COC(c2ccc(C#N)c(-c3ccccc3C)c2)c2cncn2C)no1 (stereo not shown) [Example 177, 2′-methyl-5-((1-methyl-1H-imidazol-5-yl)((5-methyl-3-isoxazolyl)methoxy)methyl)(1,1′-biphenyl)-2-carbonitrile hydrochloride] | 77 | 
